Reference: US4045298A, “Antibiotic XK-62-2 and process for production thereof” (priority 1972, dated 1977)
≈ marks a conversion by molar mass, not a printed value. Where two headings read alike, the source gives them in different places.

Tests used:
[1] = tested on: Staphylococcus aureus Smith; experiment: In vivo activity against pathogenic bacterial infections in mice
Source text: (§1) The in vivo activity of XK-62-2 against pathogenic bacterial infections in mice is further tested using various Gram-positive and Gram-negative bacteria. The mice are infected with an inoculum of the bacteria by intraperitonial injection and then treated with the test antibiotic by subcutaneous injection.

[2] = tested on: Diplococcus pneumoniae III; experiment: as above
Source text: as §1

Proteus mirabilis 1287 = experiment: as above
Source text: as §1

[3] = tested on: Streptococcus pyogenes S23; experiment: as above
Source text: as §1

[4] = tested on: Pseudomonas aeruginosa KY 8516; experiment: Minimum inhibitory concentration by agar dilution method; type: cell-based
Source text: (§2) Minimum inhibitory concentration
(§3) (γ/ml : by agar dilution method)

[5] = tested on: Pseudomonas aeruginosa KY 8562; experiment: as above; type: cell-based; conditions: KY8562, clinical isolate, Table 7
Source text: as §2, §3

[6] = tested on: Pseudomonas aeruginosa KY 8520; experiment: as above; type: cell-based; conditions: KY8520, clinical isolate, Table 7
Source text: as §2, §3

[7] = tested on: Pseudomonas aeruginosa KY 8511; experiment: as above; type: cell-based; conditions: KY8511, clinical isolate, Table 7
Source text: as §2, §3

[8] = tested on: Pseudomonas aeruginosa KY 8510; experiment: as above; type: cell-based
Source text: as §2, §3

[9] = tested on: Pseudomonas aeruginosa KY 8512; experiment: as above; type: cell-based; conditions: KY8512, clinical isolate, Table 7
Source text: as §2, §3

[10] = tested on: Pseudomonas aeruginosa KY 8515; experiment: as above; type: cell-based; conditions: KY8515, clinical isolate, Table 7
Source text: as §2, §3

[11] = tested on: Pseudomonas aeruginosa KY 4276; experiment: as above; type: cell-based; conditions: KY4276, clinical isolate, Table 7
Source text: as §2, §3

[12] = tested on: Pseudomonas aeruginosa KY 8514; experiment: as above; type: cell-based; conditions: KY8514, clinical isolate, Table 7
Source text: as §2, §3

Solubility = type: physicochemical
[13] = tested on: Proteus vulgaris ATCC 6897; experiment: Minimum inhibitory concentration by agar dilution method; type: cell-based; conditions: ATCC6897, agar dilution
Source text: Antibacterial spectra of XK-62-2 by agar
The comparative in vitro activities of these antibiotics against various microorganisms of the genus Proteus are shown in the following Table 6.
as §2, §3

[14] = tested on: Bacillus subtilis No. 10707; experiment: Activity (unit/mg) of isolated preparations; paper disk method using an agar plate; type: cell-based
Experimental: (§4) After the completion of fermentation, the culture liquor is adjusted to a pH of 2.0 with 12N sulfuric acid and stirred for 30 minutes. Then, about 10 kg of a filter aid, Radiolite No. 600 (product of Showa Kagaku Kogyo Co., Ltd., Japan) is added thereto and the microbial cells are removed by filtration. The filtrate is adjusted to a pH of 8.0 with 6N sodium hydroxide and passed through a column packed with about 50 l of a cation exchange resin, Amberlite IRC-50 (ammonia form). The active substance is adsorbed on the resin and the eluate is discarded. After washing the resin with water, the active substance is eluted out with 1N aqueous ammonia.
Active fractions are combined and concentrated in vacuo to about 5 l. The concentrate is then adjusted to a pH of 8.0 with 6N sulfuric acid and passed through a column packed with 1 l of an anion exchange resin, Dowex 1×2 (OH^- form). The column is washed with about 5 l of water and the effluent and the washings containing active substance are combined and are concentrated to 1/15 by volume. […] The resultant precipitate is removed by filtration and the filtrate is concentrated to 500 ml. The concentrate is adjusted to a pH of 4.5 with 6N sulfuric acid and 2.5 l of methanol is added thereto. […] The precipitate is separated by filtration and washed with methanol.
as §4, with “of” for “of a filter aid,”, “(trade name)” for “(product of Showa Kagaku Kogyo Co., Ltd., Japan)”, “The” for “The active substance is adsorbed on the resin and the”

[15] = tested on: Pseudomonas aeruginosa KY 8510; experiment: In vivo protection of mice against bacterial infection; conditions: subcutaneous, inoculum 6.6×10^7 cells/mouse intraperitoneal
Experimental: In addition, the in vivo activity of XK-62-2 against pathogenic bacterial infections in mice is tested. […] They are then treated with various doses of the test antibiotic by subcutaneous injection.

[16] = tested on: specific enzyme system which inactivates gentamicin C1a or kanamycin by acetylating; type: biochemical, Pseudomonas aeruginosa
[17] = tested on: Gram-positive and Gram-negative bacteria; experiment: Antibacterial activity against Gram-positive and Gram-negative bacteria (summary); type: cell-based
[18] = vs gentamicin complex or gentamicin C1a

In the case of `CNC[C@@H]1CC[C@@H](N)[C@@H](O[C@H]2[C@H](O)[C@@H](O[C@H]3OC[C@](C)(O)[C@H](NC)[C@H]3O)[C@H](N)C[C@@H]2N)O1` [XK-62-2], the ED50 ([1]; Staphylococcus aureus, sc, subcutaneous, challenge inoculum 1.8×10^8 cells/mouse, read-out: Median effective dose [ED50]) is reported as 0.28 ± 0.04 mg/kg, the “Ratio XK-62-2/gentamicin complex” value ([1]; ratio of ED50) is reported as 1.33 and the ED50 ([2]; Streptococcus pneumoniae, sc, subcutaneous, challenge inoculum 4.4×10^3 cells/mouse, read-out: Median effective dose [ED50]) is reported as 6.6 ± 1.9 mg/kg. The “Ratio XK-62-2/gentamicin complex” value ([2]; ratio of ED50) was 0.86, the ED50 (Proteus mirabilis 1287; Proteus mirabilis, 1287, sc, subcutaneous, challenge inoculum 1.8×10^8 cells/mouse, read-out: Median effective dose [ED50]) was 10.4 ± 4.4 mg/kg and the “Ratio XK-62-2/gentamicin complex” value (Proteus mirabilis 1287; ratio of ED50) was 0.97. For the same compound, the ED50 ([3]; Streptococcus pyogenes, S23, sc, subcutaneous, challenge inoculum 2.7×10^7 cells/mouse, read-out: Median effective dose [ED50]) was 17.7 ± 4.8 mg/kg, the “Ratio XK-62-2/gentamicin complex” value ([3]; ratio of ED50) was 1.50 and the Susceptibility of strain ([4]; KY 8516) was “sensitive”. The MIC ([4]; Pseudomonas aeruginosa, KY8516, agar dilution, clinical isolate, Table 7) was 0.33 µg/mL (≈ 0.712 µM), the “Antibacterial activity relative to gentamicin complex or gentamicin C1a” value [4, 18] was “much higher antibacterial activity” and the MIC [5] was over 42 µg/mL. For the same compound, the MIC [6] was 0.33 µg/mL (≈ 0.712 µM), the MIC [7] was over 42 µg/mL and the Susceptibility of strain ([8]; KY 8510) was “sensitive”. The MIC ([8]; Pseudomonas aeruginosa, KY8510, agar dilution, clinical isolate, Table 7) was 0.33 µg/mL (≈ 0.712 µM), the “Antibacterial activity relative to gentamicin complex or gentamicin C1a” value [8, 18] was “much higher antibacterial activity” and the MIC [9] was 0.33 µg/mL (≈ 0.712 µM). For the same compound, the MIC [10] was over 42 µg/mL, the MIC [11] was 0.33 µg/mL (≈ 0.712 µM) and the MIC [12] was 0.55 µg/mL (≈ 1.19 µM). For the same compound, the Solubility in acetone (Solubility; acetone) was “soluble”, the “Solubility in chloroform, benzene, ethyl acetate, butyl acetate, ether, butanol, petroleum ether, n-hexane” value (Solubility; chloroform, benzene, ethyl acetate, butyl acetate, ether, butanol, petroleum ether, n-hexane, etc.) was “insoluble” and the Solubility in ethanol (Solubility; ethanol) was “soluble”. For the same compound, the Solubility in methanol (Solubility; methanol) was “soluble”, the “Solubility in ordinary organic solvents” value (Solubility; ordinary organic solvents) was “poorly soluble” and the Solubility in water (Solubility; water) was “very soluble”. For the same compound, the MIC ([13]; Table 5, read-out: Minimum inhibitory concentration) was 0.03 µg/mL (≈ 0.0647 µM), the MIC ([13]; Table 6, read-out: Minimum inhibitory concentration) was 0.04 µg/mL (≈ 0.0863 µM) and the Activity ([14]; Example 1, purified preparate, free base) was 950 unit/mg. For the same compound, the Activity ([14]; Example 2, free base, Mm-628 ATCC 21827) was 932 unit/mg, the Activity ([14]; Example 3, purified preparate, free base) was “about 950 unit/mg” and the Activity ([14]; Example 4, free base) was 900 unit/mg. For the same compound, the Activity ([14]; Example 5, free base) was 975 unit/mg, the Activity ([14]; Example 6, free base, Micromonospora purpurea ATCC 15835) was 925 unit/mg and the Activity ([14]; Example 7, free base, Micromonospora echinospora ATCC 15837 NRRL 2985) was 898 unit/mg. For the same compound, the Activity ([14]; Example 7, free base, Micromonospora echinospora var. ferruginea NRRL 2995) was 912 unit/mg, the Activity ([14]; Example 7, free base, Micromonospora echinospora var. pallida NRRL 2996) was 925 unit/mg and the Survival of mice ([15]; 0.125 mg/mouse) was 0%. The Survival of mice ([15]; 0.25 mg/mouse) was 30%, the Survival of mice ([15]; 0.5 mg/mouse) was 50% and the Survival of mice ([15]; 1 mg/mouse) was 80%. The Survival of mice ([15]; 2 mg/mouse) was 100%, the “Inactivation by acetylation (6'-NH2)” value [16] was “free from acetylation” and the Antibacterial activity ([17]; both in vitro and in vivo, broad range of Gram-positive and Gram-negative bacteria) was “very strong antibacterial activity”. For the same compound, the “In vitro activity relative to gentamicin” value ([17]; in vitro, vs gentamicin) was “comparable” and the “In vitro activity relative to streptomycin and kanamycin” value ([17]; in vitro, vs streptomycin and kanamycin) was “far superior”.
